Test results: patent US12246022B2, “Compositions and methods for treating, preventing or reversing age associated inflammation and disorders” (BROWN UNIVERSITY, priority 2019, dated 2025)
Values joined by “and” are separate entries in the source; they are usually repeats but may differ in a detail not shown here. Identical values can stand only once.

Key:
[1] = Table 13 Comparative Studies; cited from earlier work
[2] = 3TC concentration in mouse plasma; assay type: in vivo; conditions: both sexes, C57BL/6J, oral, mice, 2 mg/mL in drinking water cohort, tail bleed at 20 months of age
Description: (§1) C57BL/6J mice of both sexes were obtained from the NIA Aged Rodent Colonies^61 at 5 and 18 months of age. The 5-month old animals were sacrificed after a short (1 week) acclimatization period, a variety of tissues were harvested, snap frozen in LN2 and stored at −80° C. The 18-month old animals were housed until they reached a desired age. Mice were housed in a specific pathogen-free AAALAC-certified barrier facility. Cages, bedding (Sani-chip hardwood bedding) and food (Purina Lab Chow 5010) were sterilized by autoclaving. Food and water (also sterilized) were provided ad libitum. A light-dark cycle of 12 hours was used (7 AM On, 7 PM Off). Temperature was maintained at 70° F., and humidity at 50%. All animals were observed daily and weighed once per week. In a pilot experiment, three cohorts of 10 animals each were treated with 3TC dissolved in drinking water (1.5 mg/ml, 2.0 mg/ml, 2.5 mg/ml) continuously from 18 months until sacrifice at 24 months. The fourth (control) cohort was provided with the same water without drug. […] Once during the experiment (at 20 months of age) the animals were subjected to a single tail bleed of approximately 70 μL. The collected plasma was shipped to the University of North Carolina CFAR Clinical Pharmacology and Analytical Chemistry Core for analysis of 3TC. For the 2 mg/mL cohort the concentration of 3TC in plasma averaged 7.2 μM. […]

[3] = 300 mg per day; cited from earlier work
[4] = tested on: L1, p16, IFN-I and SASP gene expression; experiment: RT-qPCR of L1, p16, IFN-I and SASP genes in mouse tissues after drug in drinking water; assay type: in vivo; conditions: for IFNA Individual Foldchanges / IL6 Individual Foldchanges / IRF7 Individual Foldchanges / L1 Individual Foldchanges / MMP3 Individual Foldchanges / OAS1 Individual Foldchanges / PAI Individual Foldchanges / p16 Individual Foldchanges: one animal per line, listed as 3TC; for IFNA Age-group Foldchanges / IL6 Age-group Foldchanges / IRF7 Age-group Foldchanges / L1 Age-group Foldchanges / MMP3 Age-group Foldchanges / OAS1 Age-group Foldchanges / PAI Age-group Foldchanges / p16 Age-group Foldchanges: relative to 05 mo-WT
Description: C57BL/6J mice of both sexes were obtained from the NIA Aged Rodent Colonies^61 at 5 and 18 months of age. The 5-month old animals were sacrificed after a short (1 week) acclimatization period, a variety of tissues were harvested, snap frozen in LN2 and stored at −80° C. The 18-month old animals were housed until they reached a desired age. Mice were housed in a specific pathogen-free AAALAC-certified barrier facility. Cages, bedding (Sani-chip hardwood bedding) and food (Purina Lab Chow 5010) were sterilized by autoclaving. Food and water (also sterilized) were provided ad libitum. A light-dark cycle of 12 hours was used (7 AM On, 7 PM Off). Temperature was maintained at 70° F., and humidity at 50%. All animals were observed daily and weighed once per week. In a pilot experiment, three cohorts of 10 animals each were treated with 3TC dissolved in drinking water (1.5 mg/ml, 2.0 mg/ml, 2.5 mg/ml) continuously from 18 months until sacrifice at 24 months. The fourth (control) cohort was provided with the same water without drug. […] Once during the experiment (at 20 months of age) the animals were subjected to a single tail bleed of approximately 70 μL. […] They were then assigned randomly to two cohorts by a technician that was blinded to the appearance or other characteristics of the animals. One cohort was treated for 2 weeks with 2 mg/mL of 3TC in drinking water, and the other (control) cohort with same water without drug, administered in the same manner. At the end of the treatment period all animals were sacrificed and harvested for tissues as described above. All the animals in both cohorts were all included in all subsequent analyses. The experiment was performed on separate occasions with male and female animals.
Reverse transcription qPCR (RT-qPCR) of RNA was performed using the SYBR Green system (Applied Biosystems). Polyadenylated RNA was used in all experiments assessing transcription of L1 elements, and total RNA was used for all other genes. Total RNA was harvested using the Trizol reagent (Invitrogen). Poly(A) RNA was isolated from total RNA using the NEBNext Poly(A) mRNA Magnetic Isolation Module (New England Biolabs). 1 μg of total RNA, or 10 ng of poly(A) RNA, were reverse-transcribed into cDNA in 50 μL reactions using the TaqMan kit (Applied Biosystems). To assess strand-specific transcription, the random primers in the RT reaction were substituted with a strand-specific primer to the target RNA. 1 μL of each RT reaction was used in subsequent qPCR reactions. […] The arithmetic mean of Gapdh and two additional controls (Hsp90 and GusB) was used for normalization of RT-qPCR experiments with murine tissues, with the exception of liver that was normalized to Hsp90 and GusB. For measuring L1 transcription, poly(A) RNA samples were exhaustively digested with RNase-free DNase (Qiagen) prior to the synthesis of cDNA6. Effectiveness of the DNase digestion was assessed using controls that omitted the RT enzyme.

[5] = assay type: in vivo; conditions: mice, 1.5, 2.0, 2.5 mg/ml in drinking water from 18 to 24 months
Description: as §1

Nc1nc(=O)n([C@@H]2CS[C@H](CO)O2)cc1F [Emtricitabine]
huCSF/Plasma [1]: 0.35

Nc1ccn([C@@H]2CS[C@H](CO)O2)c(=O)n1 [Lamivudine]
concentration at 2 months of continuous dosing (sampled at 20 months of age) [2]: 7.2 µM
3TC in plasma at human HIV therapeutic dose [3]: 5 to 8 µM
IFNA Individual Foldchanges ([4]; 05 mo mice + 3TC): 1.821 and 2.748 and 2.909 and 0.645 and 0.465 and 0.346
IL6 Individual Foldchanges ([4]; 05 mo mice + 3TC): 1.455 and 0.924 and 5.604 and 1.622 and 1.920 and 0.751
IRF7 Individual Foldchanges ([4]; 05 mo mice + 3TC): 1.040 and 1.153 and 1.132 and 0.684 and 0.565 and 0.960
L1 Individual Foldchanges ([4]; 05 mo mice + 3TC): 1.458 and 1.464 and 0.484 and 1.829 and 2.537 and 0.747
MMP3 Individual Foldchanges ([4]; 05 mo mice + 3TC): 1.587 and 0.601 and 1.946 and 0.711 and 0.635 and 0.476
OAS1 Individual Foldchanges ([4]; 05 mo mice + 3TC): 2.867 and 1.521 and 6.031 and 1.317 and 0.037 and 1.603
PAI Individual Foldchanges ([4]; 05 mo mice + 3TC): 2.291 and 0.842 and 2.212 and 1.683 and 0.180 and 0.380
p16 Individual Foldchanges ([4]; 05 mo mice + 3TC): 2.881 and 0.457 and 0.957 and 0.270 and 0.104 and 0.541
IFNA Age-group Foldchanges ([4]; 05 mo mice + 3TC): 1.489
IL6 Age-group Foldchanges ([4]; 05 mo mice + 3TC): 2.046
IRF7 Age-group Foldchanges ([4]; 05 mo mice + 3TC): 0.922
L1 Age-group Foldchanges ([4]; 05 mo mice + 3TC): 1.420
MMP3 Age-group Foldchanges ([4]; 05 mo mice + 3TC): 0.993
OAS1 Age-group Foldchanges ([4]; 05 mo mice + 3TC): 2.229
PAI Age-group Foldchanges ([4]; 05 mo mice + 3TC): 1.265
p16 Age-group Foldchanges ([4]; 05 mo mice + 3TC): 0.868
IFNA Individual Foldchanges ([4]; 26 mo mice + 3TC): 10.115 and 2.941 and 4.156 and 1.283 and 1.601 and 8.335 and 19.836 and 3.982 and 6.531 and 8.332 and 5.514 and 6.321
IL6 Individual Foldchanges ([4]; 26 mo mice + 3TC): 1.116 and 1.553 and 2.194 and 0.686 and 1.395 and 1.291 and 8.067 and 0.654 and 2.119 and 3.177 and 1.148 and 4.866
IRF7 Individual Foldchanges ([4]; 26 mo mice + 3TC): 0.540 and 0.506 and 0.498 and 0.424 and 0.954 and 3.302 and 0.993 and 1.155 and 0.950 and 1.866
L1 Individual Foldchanges ([4]; 26 mo mice + 3TC): 2.819 and 2.160 and 2.053 and 1.491 and 6.524 and 2.863 and 7.191 and 5.433 and 3.817 and 4.409 and 5.864 and 2.745
MMP3 Individual Foldchanges ([4]; 26 mo mice + 3TC): 1.044 and 0.972 and 1.618 and 1.650 and 1.033 and 1.166 and 4.484 and 0.374 and 1.543 and 3.656 and 1.964 and 1.637
OAS1 Individual Foldchanges ([4]; 26 mo mice + 3TC): 1.658 and 0.643 and 0.055 and 0.482 and 1.094 and 0.695 and 7.091 and 3.841 and 1.945 and 0.636 and 0.565 and 1.469
PAI Individual Foldchanges ([4]; 26 mo mice + 3TC): 1.034 and 1.056 and 2.696 and 0.493 and 1.562 and 1.675 and 2.347 and 0.529 and 0.747 and 8.508 and 6.112 and 7.313
p16 Individual Foldchanges ([4]; 26 mo mice + 3TC): 2.290 and 3.653 and 1.731 and 1.168 and 0.844 and 1.243 and 3.690 and 2.458 and 2.135 and 4.053 and 1.969 and 1.326
IFNA Age-group Foldchanges ([4]; 26 mo mice + 3TC): 6.579
IL6 Age-group Foldchanges ([4]; 26 mo mice + 3TC): 2.355
IRF7 Age-group Foldchanges ([4]; 26 mo mice + 3TC): 1.076
L1 Age-group Foldchanges ([4]; 26 mo mice + 3TC): 3.947
MMP3 Age-group Foldchanges ([4]; 26 mo mice + 3TC): 1.762
OAS1 Age-group Foldchanges ([4]; 26 mo mice + 3TC): 1.681
PAI Age-group Foldchanges ([4]; 26 mo mice + 3TC): 2.839
p16 Age-group Foldchanges ([4]; 26 mo mice + 3TC): 2.213
behavior, weight, or survival versus control cohort [5]: No significant differences in behavior, weight, or survival
